Where no end group is shown, it is not given here.

Series [1] deals with Klebsiella pneumoniae ST258. Briefly: microbe, parasite or virus in culture. It counts as cell-based. To be noted: for Minimal Inhibitory Concentration, K. pneumoniae: broth microdilution (CLSI), Mueller-Hinton broth, 18 h at 37 °C, A625nm, peptides n = 8. The protocol:
(§1) It was determined using the broth microdilution assay in accordance with the procedures from the Clinical and Laboratory Standards Institute. For broth microdilution assays, pathogenic bacteria, such as Escherichia coli ATCC 25922, Staphylococcus aureus ATCC 25923, Pseudomonas aeruginosa ATCC 27853 and Klebsiella pneumoniae ST258, were cultured in Mueller-Hinton broth (MHB) at 37 °C until an end point between of 0.08 and 0.13 units of absorbance at 625 nm and diluted 1:100 in MHB (ca. […]). Fifty microliters of this bacterial suspension was dispensed into each well of a 96-well microtiter Costar® culture plates (Sigma Aldrich) having 50 µL of MHB containing a proper concentration of pure AMPs, antibiotics or the mixture of either of the AMPs with either of the antibiotics used. Dilutions of peptides and antibiotics were made manually with two-fold dilutions.
(§2) That is, the antimicrobial capacity of each AMP (50, 25, 12.5 and 6.2 µg/ mL) in combination with each antibiotic agent (50, 25, 12.5, 3.2, 1.6 and 0 µg/ mL) was measured as described above. For evaluation of the effect of the mixtures, the fractional inhibitory concentration (FIC) was calculated for each antibiotic in each combination. The following formulas were used to calculate the FIC index: FIC of AMP = MIC of AMP in combination with Antibiotic/MIC of AMP alone; FIC of Antibiotic = MIC of Antibiotic in combination with AMP/MIC of Antibiotic alone, and FIC index = FIC of AMP + FIC of Antibiotic. Synergy was defined as an FIC index of <0.5. Additive was defined as an FIC index of >0.5 but of <4, and finally antagonism was defined as an FIC index of >4.

For series [2], the system named is Escherichia coli ATCC 25922. Description: microbe, parasite or virus in culture. Type of series: cell-based. To be noted: broth microdilution (CLSI), Mueller-Hinton broth, 18 h at 37 °C, A625nm; peptides n = 8. The protocol: as §1, with “dilutions. […]” for “dilutions.”
For series [3] the following is noted: cited from earlier work. The text has this:
Concerning AMPs, several physicochemical characteristics have been associated with the biological activity of them. Those that are relevant include hydrophobicity, the helical hydrophobic moment, as well as the size and the net charge of the peptide. However, no particular value relating to any of these characteristics was solely sufficient to correlate with the antimicrobial activity of the AMPs tested. In this case, however, the larger peptides FA1 and Pin2[G] were the AMPs that manifested optimum biological performance. Nevertheless, a fine balance in terms of physicochemical pr ...

Series [4] can be described thus: Stability in human blood plasma. It counts as in vitro ADME. The following applies: 50 μg/mL; for Peptide found after incubation in human blood plasma: 12 h at 37 °C, extraction, reverse phase HPLC at 230 nm, ESI-MS; for Recovery after interaction with human plasma, first few minutes of dilution: extracted after the first few minutes of dilution, reverse phase HPLC. The protocol:
(§3) The four synthetic peptides were subjected to incubation in human blood plasma or in the supernatant of S. aureus and P. aeruginosa growth. The AMPs were diluted in human blood plasma or in the supernatant of bacterial growth (50 μg/mL) and incubated at 37 °C for 12 h. After peptide extraction, the AMPs were separated by reverse phase HPLC using a C18 column (Vydac 218 TP54, Grace Co.) and a linear gradient of acetonitrile in 0.1% aqueous TFA from 0 to 60% in 60 min at a flow rate of 1 mL/min. Effluent absorbance was monitored at 230 nm. Peptide fractions were dried under vacuum, resuspended and analyzed by ESI-MS to confirm their molecular masses.

In series [5] the test system is Staphylococcus aureus ATCC 25923. Briefly: microbe, parasite or virus in culture. It counts as cell-based. The following applies: broth microdilution (CLSI), Mueller-Hinton broth, 18 h at 37 °C, A625nm; peptides n = 8. The protocol:
as §1
as §2, with “E. coli, S. aureus, P. aeruginosa and K. pneumoniae were grown in the presence of each of the four AMPs, and in the presence of each of the eight commercial antibiotics, which were Levofloxacin, Trimethoprim, Sulfamethoxazole, Azithromycin, Amoxicillin, Ceftriaxone, Gentamicin and Vancomycin, and in combinations of AMPs and the antibiotics. That” for “That”
For orientation: Dilution methods test growth across graded concentrations, often in twofold steps.

Series [6] concerns Pseudomonas aeruginosa ATCC 27853. Briefly: microbe, parasite or virus in culture. Type of series: cell-based. The following applies: broth microdilution (CLSI), Mueller-Hinton broth, 18 h at 37 °C, A625nm; peptides n = 8. The protocol: as §1
as §2, with “E. coli, S. aureus, P. aeruginosa and K. pneumoniae were grown in the presence of each of the four AMPs, and in the presence of each of the eight commercial antibiotics, which were Levofloxacin, Trimethoprim, Sulfamethoxazole, Azithromycin, Amoxicillin, Ceftriaxone, Gentamicin and Vancomycin, and in combinations of AMPs and the antibiotics. That” for “That”

Series [7] can be described thus: Stability in supernatant of S. aureus growth. It counts as in vitro ADME, Staphylococcus aureus. To be noted: 50 μg/mL, 12 h at 37 °C, extraction, reverse phase HPLC at 230 nm. The protocol: as §3
Series [8] is described as follows: Stability in supernatant of P. aeruginosa growth. Type of series: in vitro ADME, Pseudomonas aeruginosa. The following applies: 50 μg/mL, 12 h at 37 °C, extraction, reverse phase HPLC at 230 nm. The protocol:
as §3

Series [9] is described as follows: Stability in saline buffer (PBS). Type of series: physicochemical. The following applies: 20 μg peptide in PBS pH 7.4, 37 °C, 7 days; height of peptide peak in reverse phase HPLC. The protocol: The stability of the four synthetic peptides (20 μg) was measured in phosphate buffered saline (PBS) that consisted of NaCl (137 mM), KCl (2.7 mM), Na2HPO4 (10 mM) and KH2PO4 (2 mM) at 37 °C for 7 days (pH 7.4). The stability of peptides in PBS was monitored measuring the height of the peptide peak when separated using reverse phase HPLC under the separation conditions mentioned above.

For the sequence GILKTIKSIASKLKRKAK [P18K], the “Minimal Inhibitory Concentration, K. pneumoniae” value in series [1] was >50 µg/mL. Moreover, the “Minimal Inhibitory Concentration, E. coli” value in series [2] is listed as >50 µg/mL. Also, the hemolytic activity in series [3] is listed as 923 µM. In addition, in series [4], the “Peptide found after incubation in human blood plasma” value is on record as “neither was P18K obtained” and the “Recovery after interaction with human plasma, first few minutes of dilution” value is reported as “none”. Also, the “Minimal Inhibitory Concentration, S. aureus” value in series [5] is listed as >50 µg/mL. In addition, the “Minimal Inhibitory Concentration, P. aureginosa” value in [6] is >50 µg/mL. For the same sequence, the “Stability in supernatants of S. aureus” value in series [7] is given as “probably sequestered or cleaved”. The “Stability in supernatants of P. aeruginosa” value in series [8] is “probably sequestered or cleaved”.

Turning to GILKTIKSIASKVANTVQKLKRKAKNAV [FA1], in series [1], the “Minimal Inhibitory Concentration, K. pneumoniae” value is given as >50 µg/mL. Further, the “Peptide (MIC)” value in [1] (peptide alone against K. pneumoniae, based on Figure 2) was >50 µg/mL. Besides, in series [2], the “Minimal Inhibitory Concentration, E. coli” value is 12.5 µg/mL. In [3], the hemolytic activity was 665 µM. Moreover, in series [4], the “Peptide found after incubation in human blood plasma” value is recorded as “not found” and the “Recovery after interaction with human plasma, first few minutes of dilution” value was “none”. The “Minimal Inhibitory Concentration, S. aureus” value in series [5] is listed as >50 µg/mL. In series [6], the “Minimal Inhibitory Concentration, P. aureginosa” value is 25 µg/mL. Also, the “Stability in saline buffer” value in series [9] is on record as “less stable”. Besides, the “Stability in supernatants of S. aureus” value in series [7] is reported as “only a small amount”. The “Stability in supernatants of P. aeruginosa” value in [8] is listed as “not found”.
